Data as given in PubChem BioAssay AID1259407 (Chemical Carcinogenesis Research Information System (CCRIS), 2018).
Activity calls are given as the source filed them. No rule for the calls is given here.

System: CCRIS mutagenicity, Ames/micronucleus/aberration tests
Assay: CCRIS mutagenicity studies
[1] = Test System: AMES SALMONELLA TYPHIMURIUM, Strain/Indicator: TA97, Metabolic Activation: NONE, Method: PREINCUBATION
[2] = Test System: AMES SALMONELLA TYPHIMURIUM, Strain/Indicator: TA98, Metabolic Activation: NONE, Method: PREINCUBATION
[3] = Test System: AMES SALMONELLA TYPHIMURIUM, Strain/Indicator: TA100, Metabolic Activation: NONE, Method: PREINCUBATION
[4] = Test System: E.COLI, Strain/Indicator: WP2UVRA/PKM101, Metabolic Activation: NONE, Method: PREINCUBATION
[5] = Test System: E.COLI, Strain/Indicator: WP2UVRA/PKM101, Metabolic Activation: RAT LIVER S-9, PHENOBARBITAL AND 5,6-BENZOFLAVONE, Method: PREINCUBATION
[6] = Test System: AMES SALMONELLA TYPHIMURIUM, Strain/Indicator: TA98, Metabolic Activation: NONE, Method: STANDARD PLATE
[7] = Test System: AMES SALMONELLA TYPHIMURIUM, Strain/Indicator: TA100, Metabolic Activation: NONE, Method: STANDARD PLATE

For `[K+]`, which mutagenic call (End Point: IN VIVO MICRONUCLEUS, Test System: BONE MARROW POLYCHROMATIC ERYTHROCYTES, Species: MOUSE, Strain/Sex: DDY/MALE, Route: IP) is on record?
Its mutagenic call is “inactive; negative”.

And the mutagenic call (End Point: In vitro chromosomal aberrations, Test System: Chinese hamster lung (CHL) cells, Metabolic Activation: None)?
Its mutagenic call is “active; positive (structural changes)”.

What about the mutagenic call (Test System: AMES SALMONELLA TYPHIMURIUM, Strain/Indicator: TA97, Metabolic Activation: HAMSTER, LIVER, S-9, AROCLOR 1254 (10 OR 30%), Method: PREINCUBATION) of the same compound?
The mutagenic call was “inactive; negative”.

And the mutagenic call [1]?
The mutagenic call was “inactive; negative”.

And the mutagenic call (Test System: AMES SALMONELLA TYPHIMURIUM, Strain/Indicator: TA97, Metabolic Activation: RAT, LIVER, S-9, AROCLOR 1254 (10 OR 30%), Method: PREINCUBATION)?
Its mutagenic call is “inactive; negative”.

What about the mutagenic call (Test System: AMES SALMONELLA TYPHIMURIUM, Strain/Indicator: TA98, Metabolic Activation: HAMSTER, LIVER, S-9, AROCLOR 1254 (10 OR 30%), Method: PREINCUBATION) of the same compound?
The mutagenic call was “inactive; negative”.

And the mutagenic call [2]?
The mutagenic call was “inactive; negative”.

What about the mutagenic call (Test System: AMES SALMONELLA TYPHIMURIUM, Strain/Indicator: TA98, Metabolic Activation: RAT, LIVER, S-9, AROCLOR 1254 (10 OR 30%), Method: PREINCUBATION) of the same compound?
Its mutagenic call is “inactive; negative”.

What about the mutagenic call (Test System: AMES SALMONELLA TYPHIMURIUM, Strain/Indicator: TA100, Metabolic Activation: HAMSTER, LIVER, S-9, AROCLOR 1254 (10 OR 30%), Method: PREINCUBATION) of the same compound?
Its mutagenic call is “inactive; negative”.

And the mutagenic call [3]?
The mutagenic call was “inactive; negative”.

And the mutagenic call (Test System: AMES SALMONELLA TYPHIMURIUM, Strain/Indicator: TA100, Metabolic Activation: RAT, LIVER, S-9, AROCLOR 1254 (10 OR 30%), Method: PREINCUBATION)?
Its mutagenic call is “inactive; negative”.

And the mutagenic call (Test System: AMES SALMONELLA TYPHIMURIUM, Strain/Indicator: TA1535, Metabolic Activation: HAMSTER, LIVER, S-9, AROCLOR 1254 (10 OR 30%), Method: PREINCUBATION)?
Its mutagenic call is “inactive; negative”.

And the mutagenic call (Test System: AMES SALMONELLA TYPHIMURIUM, Strain/Indicator: TA1535, Metabolic Activation: NONE, Method: PREINCUBATION)?
The mutagenic call was “inactive; negative”.

And the mutagenic call (Test System: AMES SALMONELLA TYPHIMURIUM, Strain/Indicator: TA1535, Metabolic Activation: RAT, LIVER, S-9, AROCLOR 1254 (10 OR 30%), Method: PREINCUBATION)?
Its mutagenic call is “inactive; negative”.

Which mutagenic call [1] does the source give for `CCN(CC)CCCC(C)Nc1cc(OC)cc2cccnc12` (stereo not drawn) here?
Its mutagenic call is “inactive; negative”.

And the mutagenic call (Test System: AMES SALMONELLA TYPHIMURIUM, Strain/Indicator: TA97, Metabolic Activation: RAT, LIVER, S-9, PHENOBARBITAL AND BETA-NAPHTHOFLAVONE, Method: PREINCUBATION)?
Its mutagenic call is “inactive; negative”.

And the mutagenic call [2]?
Its mutagenic call is “active; positive”.

What about the mutagenic call (Test System: AMES SALMONELLA TYPHIMURIUM, Strain/Indicator: TA98, Metabolic Activation: RAT, LIVER, S-9, PHENOBARBITAL AND BETA-NAPHTHOFLAVONE, Method: PREINCUBATION) of the same compound?
Its mutagenic call is “inactive; negative”.

And the mutagenic call [3]?
The mutagenic call was “inactive; negative”.

And the mutagenic call (Test System: AMES SALMONELLA TYPHIMURIUM, Strain/Indicator: TA100, Metabolic Activation: RAT, LIVER, S-9, PHENOBARBITAL AND BETA-NAPHTHOFLAVONE, Method: PREINCUBATION)?
The mutagenic call was “inactive; negative”.

And the mutagenic call (Test System: AMES SALMONELLA TYPHIMURIUM, Strain/Indicator: TA102, Metabolic Activation: NONE, Method: PREINCUBATION)?
Its mutagenic call is “inactive; negative”.

What about the mutagenic call (Test System: AMES SALMONELLA TYPHIMURIUM, Strain/Indicator: TA102, Metabolic Activation: RAT, LIVER, S-9, PHENOBARBITAL AND BETA-NAPHTHOFLAVONE, Method: PREINCUBATION) of the same compound?
The mutagenic call was “inactive; negative”.

What about the mutagenic call [4] of the same compound?
The mutagenic call was “inactive; negative”.

What about the mutagenic call [5] of the same compound?
Its mutagenic call is “inactive; negative”.

Which results are given for `CCC(=O)N(O)c1ccc(Cl)c(Cl)c1`?
mutagenic call (Test System: AMES SALMONELLA TYPHIMURIUM, Strain/Indicator: TA97, Metabolic Activation: NONE, Method: STANDARD PLATE): inactive; negative; mutagenic call (Test System: AMES SALMONELLA TYPHIMURIUM, Strain/Indicator: TA97, Metabolic Activation: RAT, LIVER, S-9, AROCLOR 1254, Method: STANDARD PLATE): inactive; negative; mutagenic call [6]: inactive; negative; mutagenic call (Test System: AMES SALMONELLA TYPHIMURIUM, Strain/Indicator: TA98, Metabolic Activation: RAT, LIVER, S-9, AROCLOR 1254, Method: STANDARD PLATE): inactive; negative; mutagenic call [7]: inactive; negative; mutagenic call (Test System: AMES SALMONELLA TYPHIMURIUM, Strain/Indicator: TA100, Metabolic Activation: RAT, LIVER, S-9, AROCLOR 1254, Method: STANDARD PLATE): inactive; negative; mutagenic call (Test System: AMES SALMONELLA TYPHIMURIUM, Strain/Indicator: TA104, Metabolic Activation: NONE, Method: STANDARD PLATE): inactive; negative; mutagenic call (Test System: AMES SALMONELLA TYPHIMURIUM, Strain/Indicator: TA104, Metabolic Activation: RAT, LIVER, S-9, AROCLOR 1254, Method: STANDARD PLATE): inactive; negative

Which mutagenic call (Test System: AMES SALMONELLA TYPHIMURIUM, Strain/Indicator: TA100, Metabolic Activation: HAMSTER, LIVER, S-9, KANECHLOR 400, Method: PREINCUBATION) does the source give for `CC(=O)CC(=O)Nc1ccc(O)cc1` here?
The mutagenic call was “inactive; negative”.

What about the mutagenic call [3] of the same compound?
The mutagenic call was “inactive; negative”.

What does the source list for `CCOP(=O)(Oc1ccc([N+](=O)[O-])cc1)c1ccccc1` (stereo not drawn)?
mutagenic call [6]: active; positive; mutagenic call (Test System: AMES SALMONELLA TYPHIMURIUM, Strain/Indicator: TA98, Metabolic Activation: RAT, LIVER, S-9, Method: STANDARD PLATE): inactive; negative; mutagenic call [7]: inactive; negative; mutagenic call (Test System: AMES SALMONELLA TYPHIMURIUM, Strain/Indicator: TA100, Metabolic Activation: RAT, LIVER, S-9, Method: STANDARD PLATE): inactive; negative

How did the mutagenic call (Test System: AMES SALMONELLA TYPHIMURIUM, Strain/Indicator: TA97A, Metabolic Activation: NONE, Method: STANDARD PLATE) turn out when `COc1cc(Cc2cnc(N)nc2N)cc(OC)c1OC` was run?
The mutagenic call was “inactive; negative”.

And the mutagenic call (Test System: AMES SALMONELLA TYPHIMURIUM, Strain/Indicator: TA97A, Metabolic Activation: RAT, LIVER, S-9, PHENOBARBITAL, Method: STANDARD PLATE)?
Its mutagenic call is “inactive; negative”.

What about the mutagenic call [6] of the same compound?
Its mutagenic call is “active; positive”.

And the mutagenic call (Test System: AMES SALMONELLA TYPHIMURIUM, Strain/Indicator: TA98, Metabolic Activation: RAT, LIVER, S-9, PHENOBARBITAL, Method: STANDARD PLATE)?
The mutagenic call was “active; positive”.

And the mutagenic call [7]?
Its mutagenic call is “inactive; negative”.

What about the mutagenic call (Test System: AMES SALMONELLA TYPHIMURIUM, Strain/Indicator: TA100, Metabolic Activation: RAT, LIVER, S-9, PHENOBARBITAL, Method: STANDARD PLATE) of the same compound?
Its mutagenic call is “inactive; negative”.

What about the mutagenic call (Test System: AMES SALMONELLA TYPHIMURIUM, Strain/Indicator: TA102, Metabolic Activation: NONE, Method: STANDARD PLATE) of the same compound?
Its mutagenic call is “inactive; negative”.

What about the mutagenic call (Test System: AMES SALMONELLA TYPHIMURIUM, Strain/Indicator: TA102, Metabolic Activation: RAT, LIVER, S-9, PHENOBARBITAL, Method: STANDARD PLATE) of the same compound?
Its mutagenic call is “inactive; negative”.

And the mutagenic call (Test System: AMES SALMONELLA TYPHIMURIUM, Strain/Indicator: TA1538, Metabolic Activation: NONE, Method: STANDARD PLATE)?
The mutagenic call was “active; positive”.

And the mutagenic call (Test System: AMES SALMONELLA TYPHIMURIUM, Strain/Indicator: TA1538, Metabolic Activation: RAT, LIVER, S-9, PHENOBARBITAL, Method: STANDARD PLATE)?
Its mutagenic call is “active; positive”.

And the mutagenic call [4]?
Its mutagenic call is “inactive; negative”.

What about the mutagenic call [5] of the same compound?
The mutagenic call was “inactive; negative”.

For `O=C(O)C1CCCN1` (stereo not drawn), which mutagenic call (Test System: AMES SALMONELLA TYPHIMURIUM, Strain/Indicator: TA98, Metabolic Activation: RAT LIVER S-9, CHLOROPHENE, Method: STANDARD PLATE (COMPOUND HEATED AT 250 DEGREES CELSIUS FOR 20 MIN)) is on record?
Its mutagenic call is “active; positive”.

For `Cc1ccc2ccc3cc4ccccc4c4ccc1c2c34`, which mutagenic call (Test System: AMES SALMONELLA TYPHIMURIUM, Strain/Indicator: TA100, Metabolic Activation: RAT, INTACT HEPATOCYTES, AROCLOR 1254, Method: PREINCUBATION) is on record?
The mutagenic call was “active; positive”.

What about the mutagenic call (Test System: AMES SALMONELLA TYPHIMURIUM, Strain/Indicator: TA100, Metabolic Activation: RAT, NADPH-FORTIFIED HOMOGENIZED HEPATOCYTES, AROCLOR 1254, Method: PREINCUBATION) of the same compound?
Its mutagenic call is “active; positive”.
